Assay [1] deals with BLK (Homo sapiens, UniProt P51451). Put plainly: AssayQuant Sox-peptide kinase panel, […] compound, […] ATP; […] inhibition. Type of assay: biochemical.
In assay [2] the target is BRK/PTK6 (Homo sapiens, UniProt Q13882). The assay is described as above. It is filed as biochemical.
BRK/PTK6, sequence (Q13882 whole entry): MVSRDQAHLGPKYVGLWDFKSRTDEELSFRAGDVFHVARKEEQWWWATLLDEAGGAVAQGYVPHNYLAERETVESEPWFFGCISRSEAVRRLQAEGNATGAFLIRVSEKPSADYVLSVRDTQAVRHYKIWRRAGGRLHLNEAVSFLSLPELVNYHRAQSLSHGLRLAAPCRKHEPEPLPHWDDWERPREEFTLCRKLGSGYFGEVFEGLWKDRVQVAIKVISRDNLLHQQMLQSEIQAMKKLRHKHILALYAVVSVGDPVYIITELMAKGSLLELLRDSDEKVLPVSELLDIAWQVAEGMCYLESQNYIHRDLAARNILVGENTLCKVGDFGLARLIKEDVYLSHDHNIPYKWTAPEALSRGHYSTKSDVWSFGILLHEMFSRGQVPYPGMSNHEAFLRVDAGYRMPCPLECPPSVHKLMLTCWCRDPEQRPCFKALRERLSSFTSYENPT

BLK, sequence (P51451 2-505): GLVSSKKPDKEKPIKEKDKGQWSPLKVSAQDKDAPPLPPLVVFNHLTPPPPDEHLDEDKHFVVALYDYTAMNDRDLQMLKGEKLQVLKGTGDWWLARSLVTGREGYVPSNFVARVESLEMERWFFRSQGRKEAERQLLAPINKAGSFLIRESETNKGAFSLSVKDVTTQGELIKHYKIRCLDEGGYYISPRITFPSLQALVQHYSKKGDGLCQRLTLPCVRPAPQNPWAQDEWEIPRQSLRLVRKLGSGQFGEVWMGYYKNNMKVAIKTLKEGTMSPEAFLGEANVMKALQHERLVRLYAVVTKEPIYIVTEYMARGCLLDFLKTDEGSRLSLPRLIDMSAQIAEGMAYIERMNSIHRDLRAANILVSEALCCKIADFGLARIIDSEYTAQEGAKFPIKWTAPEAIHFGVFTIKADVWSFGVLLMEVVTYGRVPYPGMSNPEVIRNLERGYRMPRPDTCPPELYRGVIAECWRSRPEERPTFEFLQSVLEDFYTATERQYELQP

For the substance GB7208, the “% inhibition at 1 μM” value in assay [1] and in assay [2] was over 50 in each case.

The values above are taken from paper PMC10337138 (Acta Neuropathologica Communications, 2023).
